From PMC11508649 (International Journal of Molecular Sciences, 2024)
Like-named read-outs stand apart in the source and are kept apart here. Marks after values point to notes of the source that are not given here.

Tests used:
human D2 receptor = human D2 receptor (Homo sapiens, UniProt P14416); assay: D2 receptor binding assay; conditions: cloned human D2 receptor; read-out: Ki ± SEM D2
Method: (§1) Specifically, we assessed the displacement of [^3H]-raclopride, [^3H]-LSD, and [^3H]-5-CT from the cloned human D2L, 5-HT6, and 5-HT7 receptor, respectively, stably expressed in HEK293 cells, and [^3H]-ketanserin from the 5-HT2A receptor from the rat cortex.
(§2) Each compound was tested in 6 concentrations from 10–5 to 10–10 M (final concentration).
(§3) All assays were carried out in duplicates.

human 5-HT6 receptor = molecular target: T1, human 5-HT6 receptor (Homo sapiens, UniProt P50406); assay: 5-HT6 receptor binding ([3H]-LSD, HEK293 cells); conditions: cloned human receptor in HEK293, read-out: Ki ± SEM 5-HT6
T1 construct: expressed in transfected cells; host or cells: HEK293
Method: as §1
(§4) For membrane preparation, cells were subcultured in 10 cm-diameter dishes, grown to 90% confluence, washed twice with prewarmed to 37 °C phosphate buffered saline (PBS) and pelleted by centrifugation (200 g) in PBS containing 0.1 mM EDTA and 1 mM dithiothreitol. Prior to membrane preparation, pellets were stored at −80 °C.
(§5) Cell pellets were thawed and homogenised in 20 volumes of assay buffer using an Ultra Turrax tissue homogeniser and centrifuged twice at […] for 20 min at 4 °C, with incubation for 15 min at 37 °C in between. The composition of the assay buffers was as follows: for 5-HT6R, 50 mM Tris-HCl, 0.5 mM EDTA and 4 mM MgCl2; and for 5-HT7bR, 50 mM Tris-HCl, 4 mM MgCl2, 10 μM pargyline and 0.1% ascorbate. All assays were incubated in a total volume of 200 μL in 96-well microtitre plates for 1 h at 37 °C. The process of equilibration was terminated by rapid filtration through Unifilter plates with a 96-well cell harvester, and radioactivity retained on the filters was quantified on a Microbeta plate reader. For displacement studies, the assay samples contained radioligands such as 2 nM [^3H]-LSD (85.2 Ci/mmol for 5-HT6R) or 0.6 nM [^3H]-5-CT (39.2 Ci/mmol) for 5-HT7R. Non-specific binding was defined using 10 μM methiothepine in the 5-HT6R or 5-HT7R binding experiments, respectively. Each compound was tested in triplicate at 7–8 concentrations (10^−11–10^−4 M). The inhibition constants (Ki) were calculated using the Cheng–Prusoff equation. Membrane preparation and general assay procedures for cloned receptors were adjusted to a 96-microwell format based on protocols previously described by us.

human 5-HT7b receptor = molecular target: T2, human 5-HT7b receptor (Homo sapiens, UniProt P34969); assay: 5-HT7 receptor binding ([3H]-5-CT, HEK293 cells); conditions: cloned human receptor in HEK293, read-out: Ki ± SEM 5-TH7
T2 construct: expressed in transfected cells; host or cells: HEK293
Method: as §1, §4, §5

[1] = molecular target: human norepinephrine transporter (Homo sapiens, UniProt P23975); assay: NET binding assay ([3H]-nisoxetine, MDCK membranes)
Method: We performed radioligand binding assays using membranes from CHO-K1 cells stably transfected with human DAT and membranes from MDCK cells stably transfected with human NET. This was accomplished by assessing the displacement of [^3H]-WIN35,428 and [^3H]-nisoxetine from cloned human DAT and NET, respectively.
(§6) Ten-micromolar stock solutions of tested compounds were prepared in DMSO. […] Each compound was tested in a screening assay at final concentrations of 10 µM and 1 µM. Results were expressed as percent inhibition of radioligand binding. Reference compounds were tested in 8 concentrations from 10^−5 to 10^−12 M (final concentration).
Radioligand binding was performed using membranes from MDCK cells stably transfected with the human norepinephrine transporter (PerkinElmer, Waltham, MA, USA). All assays were carried out in duplicates. Measures of 50 µL of working solution of the tested compounds, 50 µL of [^3H]-nisoxetine (final concentration 4 nM) and 150 µL of diluted membranes (3 µg protein per well) prepared in assay buffer (50 mM Tris-HCl, pH 7.4, 120 mM NaCl; 5 mM KCl) were transferred to a polypropylene 96-well microplate using the 96-well pipetting station Rainin Liquidator (MettlerToledo, Beverly, MA, USA). […] The microplate was covered with sealing tape, mixed and incubated for 60 min at 4 °C. The reaction was terminated by rapid filtration through GF/C filter mate pre-soaked with 0.5% polyethyleneimine for 30 min. Ten rapid washes with 200 µL of 50 mM Tris buffer (4 °C, pH 7.4) were performed using the automated harvester system Harvester-96 MACH III FM (Tomtec, Hamden, CT, USA). […] Radioactivity was counted using a MicroBeta2 scintillation counter (PerkinElmer, Turku, Finland). Data were fitted to a one-site curve-fitting equation with Prism 5 (GraphPad Software), and Ki values were estimated using the Cheng–Prusoff equation.

5-HT2A receptor = molecular target: T3, 5-HT2A receptor (Rattus norvegicus, UniProt P14842); assay: 5-HT2A binding assay ([3H]-ketanserin, rat cortex); conditions: read-out: Ki ± SEM 5-HT2A
T3 construct: and for the native 5-HT2A receptor; from tissue; host or cells: rat cortex
Method: as §1
Tissue preparations (rat cortex) and competition binding experiments for 5-HT2A receptors were carried out according to a previously described, standard technique using 0.5 nM of [^3H]-ketanserin as the radioligand and 10 μM of methysergide to determine non-specific binding. Following 20 min of incubation, the samples containing receptor homogenates and the investigated compounds (7–9 concentrations run in triplicate) were rapidly filtered under vacuum through GF/B glass fibre filters; the filters were washed extensively with an ice-cold buffer using a Brandel harvester. Bound radioactivity was measured by scintillation counting using a liquid scintillation cocktail. The inhibition constants (Ki) were calculated using the Cheng–Prusoff equation. Results are expressed as the means of at least three separate experiments.

[2] = molecular target: T4, human serotonin transporter (Homo sapiens, UniProt P31645); assay: Serotonin transporter radioligand binding ([3H]-imipramine, HEK-293 membranes); conditions: displacement of [3H]-imipramine, HEK-293 membranes; mean ± SEM of three experiments; read-out: Ki ± SEM SERT
T4 construct: purchased PerkinElmer; host or cells: HEK-293
Method: as §2, §3

α1-adrenoceptor = assay: ADRA1 receptor binding assay ([3H]-prazosin, rat cortex); conditions: read-out: Ki ± SEM α1
human 5-HT1A receptor [3] = molecular target: T5, human 5-HT1A receptor (Homo sapiens, UniProt P08908); assay: 5-HT1A receptor radioligand binding ([3H]-8-OH-DPAT, CHO-K1 membranes); conditions: displacement of [3H]-8-OH-DPAT, mean ± SEM of three experiments, NC = not converged
T5 construct: purchased PerkinElmer; host or cells: CHO-K1
T5 sequence (P08908 1-422): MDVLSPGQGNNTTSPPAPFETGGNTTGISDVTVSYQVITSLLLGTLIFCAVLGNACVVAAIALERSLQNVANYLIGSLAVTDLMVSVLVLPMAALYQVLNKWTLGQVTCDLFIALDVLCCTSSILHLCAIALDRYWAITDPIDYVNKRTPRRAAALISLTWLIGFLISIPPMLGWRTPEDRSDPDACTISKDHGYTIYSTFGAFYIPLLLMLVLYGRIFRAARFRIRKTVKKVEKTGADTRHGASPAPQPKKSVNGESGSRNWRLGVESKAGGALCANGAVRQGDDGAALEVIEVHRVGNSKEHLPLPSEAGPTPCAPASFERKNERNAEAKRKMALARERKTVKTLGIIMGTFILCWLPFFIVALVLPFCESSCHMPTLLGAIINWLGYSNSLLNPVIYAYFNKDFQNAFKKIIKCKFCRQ
Method: as §2, §3

[4] = molecular target: human dopamine transporter (Homo sapiens, UniProt Q01959); assay: DAT binding assay ([3H]-WIN 35,428, CHO-K1 membranes)
Method: as §6
Radioligand binding was performed using membranes from CHO-K1 cells stably transfected with the human dopamine transporter (PerkinElmer, Waltham, MA, USA). All assays were carried out in duplicates. […] The microplate was covered with sealing tape, mixed and incubated for 120 min at 4 °C. The reaction was terminated by rapid filtration through GF/C filter mate pre-soaked with 0.5% polyethyleneimine for 30 min. Ten rapid washes with 200 µL of 50 mM Tris buffer (4 °C, pH 7.4) were performed using the automated harvester system Harvester-96 MACH III FM (Tomtec, Hamden, CT, USA). […] Radioactivity was counted using a MicroBeta2 scintillation counter (PerkinElmer, Turku, Finland). Data were fitted to a one-site curve-fitting equation with Prism 5 (GraphPad Software), and Ki values were estimated using the Cheng–Prusoff equation.

[5] = molecular target: T4, human serotonin transporter; conditions: previously described 1H-indole analogues; read-out: Ki ± SEM SERT; cited from earlier work
human 5-HT1A receptor [6] = molecular target: T5, human 5-HT1A receptor; conditions: previously described 1H-indole analogues; read-out: Ki ± SEM 5-HT1A; cited from earlier work

human norepinephrine transporter, sequence (P23975 whole entry): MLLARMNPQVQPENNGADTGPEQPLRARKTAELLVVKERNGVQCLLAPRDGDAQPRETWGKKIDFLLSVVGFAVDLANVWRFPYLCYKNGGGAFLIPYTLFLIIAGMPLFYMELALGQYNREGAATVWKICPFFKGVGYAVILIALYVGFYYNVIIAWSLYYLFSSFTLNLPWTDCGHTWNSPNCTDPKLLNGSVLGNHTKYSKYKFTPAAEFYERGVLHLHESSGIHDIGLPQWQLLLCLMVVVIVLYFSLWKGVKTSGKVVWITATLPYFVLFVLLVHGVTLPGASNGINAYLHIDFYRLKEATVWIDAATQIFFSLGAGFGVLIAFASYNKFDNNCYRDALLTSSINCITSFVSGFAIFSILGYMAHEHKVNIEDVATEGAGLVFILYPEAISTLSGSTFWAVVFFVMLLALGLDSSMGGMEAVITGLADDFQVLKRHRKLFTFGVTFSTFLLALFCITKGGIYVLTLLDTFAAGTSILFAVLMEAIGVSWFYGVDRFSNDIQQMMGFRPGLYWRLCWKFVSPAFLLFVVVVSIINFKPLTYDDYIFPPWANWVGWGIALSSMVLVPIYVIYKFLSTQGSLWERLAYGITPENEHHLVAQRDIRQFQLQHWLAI
T2 sequence (P34969 1-432 limits assumed): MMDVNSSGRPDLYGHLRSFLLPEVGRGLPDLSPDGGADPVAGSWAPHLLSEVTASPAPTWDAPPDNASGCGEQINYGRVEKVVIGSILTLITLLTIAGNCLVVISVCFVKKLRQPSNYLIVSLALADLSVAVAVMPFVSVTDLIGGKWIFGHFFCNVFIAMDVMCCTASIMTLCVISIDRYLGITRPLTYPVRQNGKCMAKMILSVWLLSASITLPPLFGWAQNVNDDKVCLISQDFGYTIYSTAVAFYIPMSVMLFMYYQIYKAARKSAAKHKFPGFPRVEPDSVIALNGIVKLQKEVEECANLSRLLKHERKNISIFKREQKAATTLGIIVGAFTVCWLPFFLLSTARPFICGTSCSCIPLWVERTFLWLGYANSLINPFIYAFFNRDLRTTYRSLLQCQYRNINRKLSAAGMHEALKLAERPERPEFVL
human D2 receptor, sequence (P14416 whole entry): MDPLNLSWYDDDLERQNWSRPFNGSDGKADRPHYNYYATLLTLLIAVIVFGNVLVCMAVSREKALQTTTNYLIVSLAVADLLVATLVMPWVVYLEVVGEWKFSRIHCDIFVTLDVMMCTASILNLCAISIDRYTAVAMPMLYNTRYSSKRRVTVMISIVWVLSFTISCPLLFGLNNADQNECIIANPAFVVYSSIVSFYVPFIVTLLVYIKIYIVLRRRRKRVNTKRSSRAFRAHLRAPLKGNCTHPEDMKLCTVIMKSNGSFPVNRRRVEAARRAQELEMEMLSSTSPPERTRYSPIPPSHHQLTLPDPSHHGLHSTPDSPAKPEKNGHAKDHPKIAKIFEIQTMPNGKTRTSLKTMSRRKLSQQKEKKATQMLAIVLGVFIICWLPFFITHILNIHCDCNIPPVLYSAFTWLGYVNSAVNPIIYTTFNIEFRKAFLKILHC
T1 sequence (P50406 whole entry): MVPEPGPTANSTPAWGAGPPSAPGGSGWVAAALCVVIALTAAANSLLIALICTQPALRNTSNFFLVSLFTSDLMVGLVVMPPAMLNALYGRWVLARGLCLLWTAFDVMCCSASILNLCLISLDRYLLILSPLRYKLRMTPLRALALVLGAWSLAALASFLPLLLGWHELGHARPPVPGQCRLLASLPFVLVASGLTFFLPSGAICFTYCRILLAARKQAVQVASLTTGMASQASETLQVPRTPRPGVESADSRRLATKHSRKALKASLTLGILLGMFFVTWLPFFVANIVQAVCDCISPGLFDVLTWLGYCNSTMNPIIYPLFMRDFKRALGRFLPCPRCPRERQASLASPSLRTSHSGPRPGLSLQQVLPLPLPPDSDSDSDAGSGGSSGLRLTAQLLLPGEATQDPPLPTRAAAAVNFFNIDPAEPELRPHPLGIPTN
T4 sequence (P31645 whole entry): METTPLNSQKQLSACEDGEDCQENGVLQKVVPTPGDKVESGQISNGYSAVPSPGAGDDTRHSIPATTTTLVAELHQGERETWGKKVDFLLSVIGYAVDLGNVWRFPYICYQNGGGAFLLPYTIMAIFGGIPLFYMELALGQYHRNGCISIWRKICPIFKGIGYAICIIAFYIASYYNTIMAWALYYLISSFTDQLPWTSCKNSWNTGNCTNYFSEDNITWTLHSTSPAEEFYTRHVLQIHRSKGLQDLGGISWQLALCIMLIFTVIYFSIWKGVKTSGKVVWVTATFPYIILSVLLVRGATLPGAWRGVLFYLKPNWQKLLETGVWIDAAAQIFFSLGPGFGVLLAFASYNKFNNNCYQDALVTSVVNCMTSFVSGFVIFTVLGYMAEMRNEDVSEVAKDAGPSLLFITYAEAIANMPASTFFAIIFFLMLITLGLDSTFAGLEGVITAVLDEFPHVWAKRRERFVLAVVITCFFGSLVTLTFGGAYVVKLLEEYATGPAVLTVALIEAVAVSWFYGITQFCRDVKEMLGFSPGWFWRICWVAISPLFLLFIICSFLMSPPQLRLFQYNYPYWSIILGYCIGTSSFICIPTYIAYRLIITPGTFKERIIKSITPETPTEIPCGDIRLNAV
human dopamine transporter, sequence (Q01959 whole entry): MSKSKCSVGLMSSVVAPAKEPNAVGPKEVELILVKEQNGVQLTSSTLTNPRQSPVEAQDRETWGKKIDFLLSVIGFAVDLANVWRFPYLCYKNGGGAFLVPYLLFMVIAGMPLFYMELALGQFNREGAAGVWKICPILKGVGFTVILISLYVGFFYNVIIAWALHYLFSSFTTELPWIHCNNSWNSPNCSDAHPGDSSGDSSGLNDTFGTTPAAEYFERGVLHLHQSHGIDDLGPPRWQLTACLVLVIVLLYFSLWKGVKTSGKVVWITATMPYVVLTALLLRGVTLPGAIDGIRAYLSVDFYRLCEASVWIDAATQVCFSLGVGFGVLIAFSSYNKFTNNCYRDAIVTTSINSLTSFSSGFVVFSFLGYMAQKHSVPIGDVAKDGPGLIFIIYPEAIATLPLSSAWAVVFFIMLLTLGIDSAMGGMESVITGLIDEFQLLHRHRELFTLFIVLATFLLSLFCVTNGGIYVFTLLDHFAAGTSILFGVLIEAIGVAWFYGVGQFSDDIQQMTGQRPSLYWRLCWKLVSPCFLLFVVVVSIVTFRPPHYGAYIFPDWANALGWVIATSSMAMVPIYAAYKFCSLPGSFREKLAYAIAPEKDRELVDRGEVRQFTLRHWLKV
T3 sequence (P14842 whole entry): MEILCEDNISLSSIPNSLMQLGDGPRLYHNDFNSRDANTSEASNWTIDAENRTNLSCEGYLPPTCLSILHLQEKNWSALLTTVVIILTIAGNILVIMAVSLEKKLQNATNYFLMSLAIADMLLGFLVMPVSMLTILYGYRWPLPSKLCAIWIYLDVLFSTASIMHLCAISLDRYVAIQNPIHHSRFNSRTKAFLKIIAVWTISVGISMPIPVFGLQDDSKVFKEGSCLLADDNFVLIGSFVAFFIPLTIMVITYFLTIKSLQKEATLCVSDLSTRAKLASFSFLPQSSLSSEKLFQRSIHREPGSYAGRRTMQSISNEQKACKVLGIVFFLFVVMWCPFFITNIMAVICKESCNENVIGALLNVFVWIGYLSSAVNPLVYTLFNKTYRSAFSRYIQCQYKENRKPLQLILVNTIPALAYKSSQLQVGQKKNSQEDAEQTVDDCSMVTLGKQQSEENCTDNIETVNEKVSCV

| SMILES | Ki (human D2 receptor) [nM] | Ki (human 5-HT6 receptor) [nM] | Ki (human 5-HT7b receptor) [nM] | Ki [1] [nM] | Selectivity Ratio hNET/hSERT ([1]; ratio of Ki values) | Ki (5-HT2A receptor) [nM] | Ki [2] [nM] | Ki (α1-adrenoceptor) [nM] | Ki (human 5-HT1A receptor [3]) [nM] | hNET screening procedure, displacement % ([1]; at 1 µM) [% ^a] | Ki [4] [nM] | Selectivity Ratio hDAT/hSERT ([4]; ratio of Ki values) | Ki [5] [nM] | Ki (human 5-HT1A receptor [6]) [nM] |
| --- | --- | --- | --- | --- | --- | --- | --- | --- | --- | --- | --- | --- | --- | --- |
| O=C1CC(c2c[nH]c3ccccc23)C(=O)N1CCCCN1CC=C(c2c[nH]c3ncccc23)CC1 (stereo not drawn) [Compound 4, 1-(4-(4-(1H-Pyrrolo[2,3-b]pyridin-3-yl)-3,6-dihydropyridin-1(2H)-yl)butyl)-3-(1H-indol-3-yl)pyrrolidine-2,5-dione] | 78 ± 7 | 1690 ± 186 | 1420 ± 172 | 167 ± 13.8 | 3.5 | 1400 ± 71 | 47 ± 5 | 87 ± 2 | 660 ± 60.2 | – | – | – | – | – |
| COc1ccc2[nH]cc(C3CC(=O)N(CCCN4CC=C(c5c[nH]c6ncccc56)CC4)C3=O)c2c1 (stereo not drawn) [Compound 8, 1-(3-(4-(1H-Pyrrolo[2,3-b]pyridin-3-yl)-3,6-dihydropyridin-1(2H)-yl)propyl)-3-(5-methoxy-1H-indol-3-yl)pyrrolidine-2,5-dione] | – | 2970 ± 138 | 1530 ± 76 | – | – | 727 ± 43 | 23 ± 2.8 | 265 ± 6.5 | – | 43 | 663 ± 15 | – | – | – |
| O=C1CC(c2c[nH]c3ccc(F)cc23)C(=O)N1CCCN1CC=C(c2c[nH]c3ncccc23)CC1 (stereo not drawn) [Compound 11, 1-(3-(4-(1H-Pyrrolo[2,3-b]pyridin-3-yl)-3,6-dihydropyridin-1(2H)-yl)propyl)-3-(5-fluoro-1H-indol-3-yl)pyrrolidine-2,5-dione] | 51 ± 6 | 1290 ± 147 | 1130 ± 89 | – | – | 1160 ± 96 | 9.2 ± 0.6 | – | 128 | – | 288 ± 25.2 | 31.3 | – | – |
| O=C1CC(c2c[nH]c3ccc(F)cc23)C(=O)N1CCCN1CC=C(c2c[nH]c3ccccc23)CC1 (stereo not drawn) [Compound 20] | 56 ± 7 | 257 ± 17 | 30 ± 4 | – | – | 237 ± 17 | – | – | – | – | – | – | 1.5 ± 0.2 | 190 ± 8.5 |
